Data: patent publication US20230257354A1, “NOVEL HETEROCYCLIC COMPOUNDS” (Hoffmann-La Roche Inc., priority 2020, published 2023)
Where a name gives a salt, the structure may show the parent alone.

System: Acinetobacter baumannii ATCC17978
Assay: Antimicrobial susceptibility testing, 90% growth inhibitory concentration (IC90) determination, ATCC17978
Format: cell-based
Conditions: Iso-Sensitest broth, OD 600 nm over 16 h, 35±2° C., read-out: ATCC 17978 IC90
Method: Antimicrobial Susceptibility Testing: 90% Growth Inhibitory Concentration (IC90) Determination The in vitro antimicrobial activity of the compounds was determined according to the following procedure: The assay used a 10-points Iso-Sensitest broth medium to measure quantitatively the in vitro activity of the compounds against Acinetobacter baumannii ATCC17978 or ATCC17961. Stock compounds in DMSO were serially twofold diluted (e.g. range from 50 to 0.097 μM final concentration) in 384 wells microtiter plates and inoculated with 49 μl the bacterial suspension in Iso-Sensitest medium to have a final cell concentration of ˜5×10^(5) CFU/ml in a final volume/well of 50 ul/well. Microtiter plates were incubated at 35±2° C. Bacterial cell growth was determined with the measurement of optical density at X=600 nm each 20 minutes over a time course of 16 h. Growth inhibition was calculated during the logarithmic growth of the bacterial cells with determination of the concentration inhibiting 50% (IC50) and 90% (IC90) of the growth. Table 1 provides the 90% growth inhibitory concentrations (IC90) in micromoles per liter of the compounds of present invention obtained against the strain Acinetobacter baumannii ATCC17978.

Row | Structure (SMILES) | IC90
1 | Cn1c(-c2ccc(OC(F)F)c(F)c2F)cnc1C(=O)Nc1ccc(C(=O)NCCC2CN(C(=O)CCN)C2)c(Cl)c1 [Example B10, N-[4-[2-[1-(3-aminopropanoyl)azetidin-3-yl]ethylcarbamoyl]-3-chloro-phenyl]-5-[4-(difluoromethoxy)-2,3-difluoro-phenyl]-1-methyl-imidazole-2-carboxamide;2,2,2-trifluoroacetic acid] | 140 nM
2 | Cc1cc(NC(=O)c2ncc(-c3ccc(OCC#N)c(F)c3F)n2C)ccc1C(=O)NCCNC(=O)C1(O)CCNCC1 [Example B14, N-[2-[[4-[[5-[4-(cyanomethoxy)-2,3-difluoro-phenyl]-1-methyl-imidazole-2-carbonyl]amino]-2-methyl-benzoyl]amino]ethyl]-4-hydroxy-piperidine-4-carboxamide;formic acid] | 990 nM
3 | Cc1cc(NC(=O)c2ncc(-c3ccc(OCC#N)c(F)c3F)n2C)ccc1C(=O)NCCNC(=O)N[C@H]1CNC[C@@H]1O [Example B31, 5-[4-(cyanomethoxy)-2,3-difluoro-phenyl]-N-[4-[2-[[(3S,4S)-4-hydroxypyrrolidin-3-yl]carbamoylamino]ethylcarbamoyl]-3-methyl-phenyl]-1-methyl-imidazole-2-carboxamide;formic acid] | 740 nM
4 | CCc1cc(NC(=O)c2ncc(-c3ccc(OC(F)F)cc3)n2C)ccc1C(=O)NCCOCCN [Example A14, N-[4-[2-(2-aminoethoxy)ethylcarbamoyl]-3-ethyl-phenyl]-5-[4-(difluoromethoxy)phenyl]-1-methyl-imidazole-2-carboxamide;hydrochloride] | 3000 nM
5 | COc1ccc(-c2cnc(C(=O)Nc3ccc(C(=O)NCCCCCCN)c(Cl)c3)n2C)c(F)c1F [Example A6, N-[4-(6-aminohexylcarbamoyl)-3-chloro-phenyl]-5-(2,3-difluoro-4-methoxy-phenyl)-1-methyl-imidazole-2-carboxamide] | 150 nM
6 | Cn1c(-c2ccc(OCC#N)c(F)c2F)cnc1C(=O)Nc1ccc(C(=O)NCCCN2CCNCC2)c(Cl)c1 [Example A11, N-[3-chloro-4-(3-piperazin-1-ylpropylcarbamoyl)phenyl]-5-[4-(cyanomethoxy)-2,3-difluoro-phenyl]-1-methyl-imidazole-2-carboxamide;2,2,2-trifluoroacetic acid] | 310 nM
7 | Cn1c(-c2ccc(OCC#N)c(F)c2F)cnc1C(=O)Nc1ccc(C(=O)NCCNC(=O)[C@H]2C[C@@](C)(O)CN2)c(Cl)c1 [Example B36, N-[3-chloro-4-[2-[[(2R,4R)-4-hydroxy-4-methyl-pyrrolidine-2-carbonyl]amino]ethylcarbamoyl]phenyl]-5-[4-(cyanomethoxy)-2,3-difluoro-phenyl]-1-methyl-imidazole-2-carboxamide;formic acid] | 1100 nM
8 | CCc1cc(NC(=O)c2ncc(-c3ccc(OC(F)F)c(F)c3F)n2C)ccc1C(=O)NCCCNC(=O)C1CCN(CC2CNC2)CC1 [Example C3, 1-(azetidin-3-ylmethyl)-N-[3-[[4-[[5-[4-(difluoromethoxy)-2,3-difluoro-phenyl]-1-methyl-imidazole-2-carbonyl]amino]-2-ethyl-benzoyl]amino]propyl]piperidine-4-carboxamide;formic acid] | 450 nM
9 | CCc1cc(NC(=O)c2ncc(-c3ccc(OC(F)F)c(F)c3F)n2C)ccc1C(=O)NCCOCCN [Example A17, N-[4-[2-(2-aminoethoxy)ethylcarbamoyl]-3-ethyl-phenyl]-5-[4-(difluoromethoxy)-2,3-difluoro-phenyl]-1-methyl-imidazole-2-carboxamide;hydrochloride] | 400 nM
10 | COc1ccc(-c2cnc(C(=O)Nc3ccc(C(=O)N[C@H]4C[C@@H](NC(=O)C5C[C@@H](O)CN5)C4)c(Cl)c3)n2C)c(F)c1F (stereo in doubt) [Example B38, N-[3-chloro-4-[[3-[[(4R)-4-hydroxypyrrolidine-2-carbonyl]amino]cyclobutyl]carbamoyl]phenyl]-5-(2,3-difluoro-4-methoxy-phenyl)-1-methyl-imidazole-2-carboxamide;formic acid] | 55 nM
11 | COc1ccc(-c2cnc(C(=O)Nc3ccc(C(=O)NC4CCN(C(=O)C5CCNCC5)CC4)c(Cl)c3)n2C)c(F)c1F [Example B5, N-[3-chloro-4-[[1-(piperidine-4-carbonyl)-4-piperidyl]carbamoyl]phenyl]-5-(2,3-difluoro-4-methoxy-phenyl)-1-methyl-imidazole-2-carboxamide;formic acid] | 79 nM
12 | COc1ccc(-c2cnc(C(=O)Nc3ccc(C(=O)NCC4CCN(CC5CNC5)CC4)c(Cl)c3)n2C)c(F)c1F [Example C4, N-[4-[[1-(azetidin-3-ylmethyl)-4-piperidyl]methylcarbamoyl]-3-chloro-phenyl]-5-(2,3-difluoro-4-methoxy-phenyl)-1-methyl-imidazole-2-carboxamide;2,2,2-trifluoroacetic acid] | 750 nM
13 | COc1ccc(-c2cnc(C(=O)Nc3ccc(C(=O)NCC4CC(N)C4)c(Cl)c3)n2C)c(F)c1F (stereo not drawn) [Example A8, N-[4-[(3-aminocyclobutyl)methylcarbamoyl]-3-chloro-phenyl]-5-(2,3-difluoro-4-methoxy-phenyl)-1-methyl-imidazole-2-carboxamide;formic acid] | 500 nM

Continued, values first:

Row | IC90 | Structure (SMILES)
14 | 1200 nM | COc1ccc(-c2cnc(C(=O)Nc3ccc(C(=O)NCCNC(=O)[C@H]4C[C@@](C)(O)CN4)c(C)c3)n2C)c(F)c1F [Example B26, 5-(2,3-difluoro-4-methoxy-phenyl)-N-[4-[2-[[(2R,4R)-4-hydroxy-4-methyl-pyrrolidine-2-carbonyl]amino]ethylcarbamoyl]-3-methyl-phenyl]-1-methyl-imidazole-2-carboxamide;formic acid]
15 | 850 nM | CC[C@]1(O)CN[C@@H](C(=O)NCCNC(=O)c2ccc(NC(=O)c3ncc(-c4ccc(OCC#N)c(F)c4F)n3C)cc2Cl)C1 [Example B37, N-[3-chloro-4-[2-[[(2R,4R)-4-ethyl-4-hydroxy-pyrrolidine-2-carbonyl]amino]ethylcarbamoyl]phenyl]-5-[4-(cyanomethoxy)-2,3-difluoro-phenyl]-1-methyl-imidazole-2-carboxamide;formic acid]
16 | 120 nM | COc1ccc(-c2cnc(C(=O)Nc3ccc(C(=O)N[C@H]4C[C@@H](NC(=O)C5(O)CCNCC5)C4)c(Cl)c3)n2C)c(F)c1F [Example B40, N-[3-[[2-chloro-4-[[5-(2,3-difluoro-4-methoxy-phenyl)-1-methyl-imidazole-2-carbonyl]amino]benzoyl]amino]cyclobutyl]-4-hydroxy-piperidine-4-carboxamide;formic acid]
17 | 670 nM | COc1ccc(-c2cnc(C(=O)Nc3ccc(C(=O)NCCNC(=O)CN(C)C)c(Cl)c3)n2C)c(F)c1F [Example A24, N-[3-chloro-4-[2-[[2-(dimethylamino)acetyl]amino]ethylcarbamoyl]phenyl]-5-(2,3-difluoro-4-methoxy-phenyl)-1-methyl-imidazole-2-carboxamide;2,2,2-trifluoroacetic acid]
18 | 110 nM | COc1ccc(-c2cnc(C(=O)Nc3ccc(C(=O)NC4CCN(C(=O)C5CCNCC5)C4)c(Cl)c3)n2C)c(F)c1F (stereo not drawn) [Example B1, N-[3-Chloro-4-[[1-(piperidine-4-carbonyl)pyrrolidin-3-yl]carbamoyl]phenyl]-5-(2,3-difluoro-4-methoxy-phenyl)-1-methyl-imidazole-2-carboxamide; formic acid]
19 | 590 nM | CCc1cc(NC(=O)c2ncc(-c3ccc(OC)c(F)c3F)n2C)ccc1C(=O)NCCOCCN [Example A13, N-[4-[2-(2-aminoethoxy)ethylcarbamoyl]-3-ethyl-phenyl]-5-(2,3-difluoro-4-methoxy-phenyl)-1-methyl-imidazole-2-carboxamide;formic acid]
20 | 240 nM | COc1ccc(-c2cnc(C(=O)Nc3ccc(C(=O)NCC4CN(C(=O)CN)C4)c(Cl)c3)n2C)c(F)c1F [Example B18, N-[4-[[1-(2-aminoacetyl)azetidin-3-yl]methylcarbamoyl]-3-chloro-phenyl]-5-(2,3-difluoro-4-methoxy-phenyl)-1-methyl-imidazole-2-carboxamide;formic acid]
21 | 3200 nM | CNC(=O)c1ccc(NC(=O)c2ncc(-c3ccc(OC)cc3)n2C)cc1C [Example D1, 5-(4-Methoxyphenyl)-1-methyl-N-[3-methyl-4-(methylcarbamoyl)phenyl]imidazole-2-carboxamide]
22 | 100 nM | COc1ccc(-c2cnc(C(=O)Nc3ccc(C(=O)NC4CCN(C(=O)[C@@H]5CCNC5)CC4)c(Cl)c3)n2C)c(F)c1F [Example B6, N-[3-chloro-4-[[1-[(3R)-pyrrolidine-3-carbonyl]-4-piperidyl]carbamoyl]phenyl]-5-(2,3-difluoro-4-methoxy-phenyl)-1-methyl-imidazole-2-carboxamide;formic acid]
23 | 160 nM | COc1ccc(-c2cnc(C(=O)Nc3ccc(C(=O)N[C@H]4C[C@@H](C(=O)NCCN)C4)c(Cl)c3)n2C)c(F)c1F [Example B19, N-[4-[[3-(2-aminoethylcarbamoyl)cyclobutyl]carbamoyl]-3-chloro-phenyl]-5-(2,3-difluoro-4-methoxy-phenyl)-1-methyl-imidazole-2-carboxamide;formic acid]
24 | 370 nM | CCc1cc(NC(=O)c2ncc(-c3ccc(OC(F)F)c(F)c3F)n2C)ccc1C(=O)NCCCNC(=O)C1CCN(CC2CCNC2)CC1 (stereo not drawn) [Example C2, N-[3-[[4-[[5-[4-(difluoromethoxy)-2,3-difluoro-phenyl]-1-methyl-imidazole-2-carbonyl]amino]-2-ethyl-benzoyl]amino]propyl]-1-(pyrrolidin-3-ylmethyl)piperidine-4-carboxamide;formic acid]
